The subject of one assay is primary neurons. To be noted: 75 μM peroxide, 12.5 μM compound, 48 h.
For the next assay, the system named is hippocampal neurons. Put plainly: Spontaneous excitatory postsynaptic currents (sEPSC), whole-cell patch-clamp. To be noted: 12.5 μM, 24 hr, DIV8. Format: cell-based, mouse. On the procedure: Spontaneous excitatory postsynaptic currents in hippocampal neurons. […] The cultures were treated with selected compounds or 0.1% DMSO for 24 hr before measuring spontaneous excitatory postsynaptic currents (sEPSCs). Whole-cell patch-clamp recordings were performed using an Axon Multiclamp 700b amplifier, 1440A Digidata digitizer and data acquisition using pClamp software (Axon Instruments, Foster City, Calif.). The neurons were first recorded in a current clamp mode to monitor cell health. Only neurons with a resting membrane potential of less than −40 mV were used for further analysis. sEPSC recordings were made at 50 kHz and subsequently filtered at 5 kHz. The membrane potential was held at −70 mV during the recording. […] Once a neuron was patched, its seal was monitored, and if the transient resistance was less than […], the recording was not used for analysis. All experiments were performed at room temperature. The frequency and amplitude of sEPSCs were analyzed using the template match search (pClamp) and measured as a percentage of baseline level, calculated from the average of a 5 min baseline recording. The values of the amplitude and frequency of EPSCs for each recording was reported as an average from a 5 min recording period.
For orientation: Patch clamp records ionic current or voltage across a cell membrane.

Another assay has as its system primary cortical neurons. The settings on record: Ding et al. 2011; cited from earlier work.

Molecules are shown by their SMILES. Counter-ions that a name gives are not always drawn.

`CCCCOc1ccc(C(=O)CCN2CCCCC2)cc1` [DYCLONINE HYDROCHLORIDE]: in the assay on primary neurons, the “protection from peroxide (PO) induced mitochondrial fragmentation” value is “fully protected”. For the same compound, the “sEPSC frequency and amplitude” value in the assay with hippocampal neurons is “increasing both frequency and amplitude”. `O=c1c(-c2ccc(O)cc2)coc2cc(O)cc(O)c12` [GENISTEIN]: the “ΔΨm in primary cortical neurons treated with Aβ peptide” value with primary cortical neurons is “increase ΔΨm”.

The record behind these values is patent US20230003721A1, “MITOTHERAPEUTICS FOR THE TREATMENT OF BRAIN DISORDERS” (The University of Florida Research Foundation, Inc., priority 2019, published 2023).
